The results in this text go back to patent US10336702B2, “Pharmaceutically active compounds” (BERGENBIO ASA, priority 2015, dated 2019).

In general, IC50 refers to the midpoint of a concentration-inhibition curve.

For one assay, the target named is T1, p-Akt1 in LNCaP cells (Homo sapiens, UniProt P31749).
T1 construct: SureFire assays to detect cellular p-Akt1, p-Akt2 and p-Akt3 levels in WM115 cells (Akt2/3) and LNCaP cells (Akt1); endogenous in cells; host or cells: LNCaP (ECACC 89110211)
The assay is described as follows: Phospho-Akt cellular SureFire assay, p-Akt1 in LNCaP cells. The assay is classed as cell-based. Particulars: read-out: Biological Assay 2 IC50 (nM) Akt1 LNCaP. The method, boiled down:
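Phospho-Thr308 Akt1 detected by AlphaScreen SureFire proximity beads in LNCaP lysates after 15 min compound treatment at 37 °C in 0.1% FBS medium, unstimulated, 0.3% DMSO. Cells plated at 5×10^4/well overnight; IC50 from a 4-parameter equation.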

The target of another assay is T2, p-Akt3 in WM115 cells (Homo sapiens, UniProt Q9Y243).
T2 construct: SureFire assays to detect cellular p-Akt1, p-Akt2 and p-Akt3 levels in WM115 cells (Akt2/3) and LNCaP cells (Akt1); endogenous in cells; host or cells: WM115 (ECACC 91061232), insulin-stimulated
T2 sequence (Q9Y243 whole entry): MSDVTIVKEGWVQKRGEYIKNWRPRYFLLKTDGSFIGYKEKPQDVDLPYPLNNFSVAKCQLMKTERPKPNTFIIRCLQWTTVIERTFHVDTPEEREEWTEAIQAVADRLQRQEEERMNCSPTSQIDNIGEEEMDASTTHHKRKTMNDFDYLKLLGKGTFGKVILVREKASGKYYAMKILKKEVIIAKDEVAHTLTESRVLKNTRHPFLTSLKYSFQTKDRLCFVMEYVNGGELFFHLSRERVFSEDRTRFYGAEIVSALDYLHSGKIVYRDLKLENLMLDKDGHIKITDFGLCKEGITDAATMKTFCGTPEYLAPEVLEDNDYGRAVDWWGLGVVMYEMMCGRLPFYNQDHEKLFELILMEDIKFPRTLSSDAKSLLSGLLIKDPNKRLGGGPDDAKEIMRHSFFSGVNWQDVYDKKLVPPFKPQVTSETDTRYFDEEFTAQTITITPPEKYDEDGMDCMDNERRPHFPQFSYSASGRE
The assay is described as follows: Phospho-Akt cellular SureFire assay, p-Akt3 in WM115 cells. The assay is classed as cell-based. Particulars: insulin stimulated, read-out: Biological Assay 2 IC50 (nM) Akt3 WM115. The method, boiled down: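 pThr308-Akt3 in lysates was quantified by bead-proximity SureFire detection, pairing a phospho-specific antibody with a total Akt3 antibody. Before lysis, WM115 cells in 0.1% FBS medium were treated for 15 min at 37 °C with compound (final DMSO 0.3%), following a 10 min stimulation with 100 nM insulin. IC50 was obtained by 4-parameter fitting.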

The next assay deals with T3, Akt1 (Homo sapiens, UniProt P31749).
T3 construct: unspecified tag, removed (detagged) (cleaved yes); purchased SignalChem and Proteros (Akt1); Merck Millipore (PDK1) 14-452 (PDK1); none given for Akt1
T3 sequence (P31749 whole entry): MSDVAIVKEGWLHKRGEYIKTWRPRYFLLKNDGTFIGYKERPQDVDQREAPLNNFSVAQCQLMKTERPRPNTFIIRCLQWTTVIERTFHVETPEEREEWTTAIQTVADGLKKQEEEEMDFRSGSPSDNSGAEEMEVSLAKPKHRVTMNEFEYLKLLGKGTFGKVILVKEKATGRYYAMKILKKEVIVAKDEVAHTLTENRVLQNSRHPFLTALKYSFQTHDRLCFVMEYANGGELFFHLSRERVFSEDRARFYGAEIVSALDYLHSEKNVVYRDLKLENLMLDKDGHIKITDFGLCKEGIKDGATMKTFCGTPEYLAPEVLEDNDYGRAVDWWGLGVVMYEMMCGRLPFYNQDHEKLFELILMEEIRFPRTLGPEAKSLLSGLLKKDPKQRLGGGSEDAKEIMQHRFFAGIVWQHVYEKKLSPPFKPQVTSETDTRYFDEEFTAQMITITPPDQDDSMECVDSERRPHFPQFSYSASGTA
The assay is described as follows: Akt activation assay (PDK1-mediated activation, LANCE Ultra crosstide TR-FRET), Akt1. The assay is classed as biochemical. Particulars: read-out: Biological Assay 1 IC50 (nM) Akt1. The method in brief:
(§1)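 This TR-FRET readout (Eu-anti-phospho-crosstide antibody, 665/615 nm) measured PDK1-driven activation of Akt. Compound was first preincubated with each Akt isoform: Akt1 5 nM; Akt2 15 nM SignalChem or 5 nM Proteros; Akt3 3 nM SignalChem or 5 nM Proteros. Reactions then ran 30 min with 5 nM PDK1, lipid vesicles containing 0.55 µM PtdIns(3,4,5)P3, 100 µM ATP and 100 nM crosstide at pH 7.5, and IC50 came from a 4-parameter equation.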
In general terms: TR-FRET usually uses a lanthanide donor and a delayed reading to cut background.

The next assay has as its target T4, Akt3 (Homo sapiens, UniProt Q9Y243).
T4 construct: unspecified tag, removed (detagged) (cleaved yes); purchased SignalChem and Proteros (Akt3); Merck Millipore (PDK1) 14-452 (PDK1); none given for Akt3
The assay is described as follows: Akt activation assay (PDK1-mediated activation, LANCE Ultra crosstide TR-FRET), Akt3. The assay is classed as biochemical. Particulars: read-out: Biological Assay 1 IC50 (nM) Akt3. The method, boiled down: as §1

For another assay, the target named is T5, Akt2 (Homo sapiens, UniProt P31751).
T5 construct: unspecified tag, removed (detagged) (cleaved yes); purchased SignalChem and Proteros (Akt2); Merck Millipore (PDK1) 14-452 (PDK1); none given for Akt2
T5 sequence (P31751 whole entry): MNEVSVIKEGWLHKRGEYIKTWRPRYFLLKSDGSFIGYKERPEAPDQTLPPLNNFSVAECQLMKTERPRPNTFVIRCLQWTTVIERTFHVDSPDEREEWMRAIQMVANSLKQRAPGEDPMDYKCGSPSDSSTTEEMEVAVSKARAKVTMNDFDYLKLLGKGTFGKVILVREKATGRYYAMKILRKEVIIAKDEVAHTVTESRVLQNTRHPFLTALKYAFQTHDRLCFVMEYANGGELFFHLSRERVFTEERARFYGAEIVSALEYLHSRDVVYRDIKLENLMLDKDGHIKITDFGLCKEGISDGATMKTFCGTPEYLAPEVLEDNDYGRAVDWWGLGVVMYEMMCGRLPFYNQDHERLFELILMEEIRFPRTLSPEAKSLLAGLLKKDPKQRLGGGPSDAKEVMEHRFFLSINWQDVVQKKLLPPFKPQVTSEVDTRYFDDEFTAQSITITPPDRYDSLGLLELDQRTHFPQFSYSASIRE
The assay is described as follows: Akt activation assay (PDK1-mediated activation, LANCE Ultra crosstide TR-FRET), Akt2. The assay is classed as biochemical. Particulars: read-out: Biological Assay 1 IC50 (nM) Akt2. The method, boiled down: as §1

The next assay concerns the target T6, p-Akt2 in WM115 cells (Homo sapiens, UniProt P31751).
T6 construct: SureFire assays to detect cellular p-Akt1, p-Akt2 and p-Akt3 levels in WM115 cells (Akt2/3) and LNCaP cells (Akt1); endogenous in cells; host or cells: WM115 (ECACC 91061232), insulin-stimulated
The assay is described as follows: Phospho-Akt cellular SureFire assay, p-Akt2 in WM115 cells. The assay is classed as cell-based. Particulars: insulin stimulated, read-out: Biological Assay 2 IC50 (nM) Akt2 WM115. The method, boiled down:
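Readout is a bead-proximity SureFire assay pairing a pThr308 Akt antibody with a total Akt2 antibody, lysate and beads incubated 2 h plus 2 h at room temperature in the dark. Before lysis, serum-starved WM115 cells received 100 nM insulin (10 min), then test compound (15 min, 0.3% DMSO); IC50 by 4-parameter equation.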

T1 sequence (P31749 whole entry): as the sequence (P31749 whole entry) above
T4 sequence (Q9Y243 whole entry): as the sequence (Q9Y243 whole entry) above
T6 sequence (P31751 whole entry): as the sequence (P31751 whole entry) above

Consider `CC(=O)N(C)[C@H]1CC[C@H](CC(=O)Nc2cnc(-c3ccc([C@]4(N)C[C@H](F)C4)cc3)c(-c3ccccc3)c2)CC1` [Example 32, N-(6-(4-(trans-1-amino-3-fluorocyclobutyl)phenyl)-5-phenylpyridin-3-yl)-2-(trans-4-(N-methylacetamido)cyclohexyl)acetamide], for which the IC50 at p-Akt1 in LNCaP cells came to 6900 nM; at p-Akt3 in WM115 cells it was 36 nM; on Akt1, 2000 nM; on Akt3, 34 nM; on Akt2, 470 nM; at p-Akt2 in WM115 cells, 1400 nM.

As for `COC(=O)N(C)[C@H]1CC[C@H](CC(=O)Nc2cnc(-c3ccc(C(C)(C)N)cc3)c(-c3ccccc3)c2)CC1` [Example 34, methyl (trans-4-(2-((6-(4-(2-aminopropan-2-yl)phenyl)-5-phenylpyridin-3-yl)amino)-2-oxoethyl)cyclohexyl)(methyl)carbamate], the IC50 is greater than 15000 nM on p-Akt1 in LNCaP cells; 150 nM at p-Akt3 in WM115 cells; greater than 29000 nM at Akt1; 380 nM at Akt3; 6500 nM at Akt2; 5200 nM at p-Akt2 in WM115 cells.

As to `CN(C1CCC(CC(=O)Nc2cnc(-c3ccc(C(C)(C)N)cc3)c(-c3ccccc3)c2)CC1)C1(C)COC1` (stereo not drawn) [Example 35, N-(6-(4-(2-aminopropan-2-yl)phenyl)-5-phenylpyridin-3-yl)-2-(4-(methyl(3-methyloxetan-3-yl)amino)cyclohexyl)acetamide], the IC50 on p-Akt1 in LNCaP cells is greater than 30000 nM; on p-Akt3 in WM115 cells, 1500 nM; on Akt1, greater than 30000 nM; on Akt3 it was 17000 nM; on Akt2, 25000 nM; at p-Akt2 in WM115 cells, 17000 nM.

In the case of `COC1(OC)CCC(CC(=O)Nc2cnc(-c3ccc(C4(N)COC4)cc3)c(-c3ccccc3)c2)CC1` [Example 36, N-(6-(4-(3-aminooxetan-3-yl)phenyl)-5-phenylpyridin-3-yl)-2-(4,4-dimethoxycyclohexyl)acetamide], the IC50 on p-Akt1 in LNCaP cells was greater than 30000 nM; on p-Akt3 in WM115 cells it was 230 nM; at Akt1 it was greater than 30000 nM; on Akt3, 100 nM; at Akt2, greater than 30000 nM; at p-Akt2 in WM115 cells, 3800 nM.

Take `NC1(c2ccc(-c3ncc(NC(=O)C[C@H]4CC[C@H](N5CCOCC5)CC4)cc3-c3ccsc3)cc2)CCC1` [Example 38, N-(6-(4-(1-aminocyclobutyl)phenyl)-5-(thiophen-3-yl)pyridin-3-yl)-2-(trans-4-morpholinocyclohexyl)acetamide]: the IC50 is 7000 nM at p-Akt1 in LNCaP cells; 92 nM on p-Akt3 in WM115 cells; 9000 nM at Akt1; 560 nM on Akt3; 1900 nM on Akt2; 3000 nM at p-Akt2 in WM115 cells.

As to `CC(C)(N)c1ccc(-c2ncc(NC(=O)C[C@H]3CC[C@H](N4CCOC4=O)CC3)cc2-c2ccccc2)cc1` [Example 42, N-(6-(4-(2-aminopropan-2-yl)phenyl)-5-phenylpyridin-3-yl)-2-(trans-4-(2-oxooxazolidin-3-yl)cyclohexyl)acetamide], the IC50 was greater than 30000 nM at p-Akt1 in LNCaP cells; 210 nM on p-Akt3 in WM115 cells; greater than 30000 nM at Akt1; 960 nM on Akt3; 4500 nM at Akt2; 7900 nM at p-Akt2 in WM115 cells.

For `CC(=O)N(C)[C@H]1CC[C@H](CC(=O)Nc2cnc(-c3ccc(C(C)(C)N)nc3)c(-c3ccccc3)c2)CC1` [Example 43, N-(6′-(2-aminopropan-2-yl)-3-phenyl-[2,3′-bipyridin]-5-yl)-2-(trans-4-(N-methylacetamido)cyclohexyl)acetamide], the IC50 at p-Akt1 in LNCaP cells is greater than 30000 nM; on p-Akt3 in WM115 cells, 1700 nM; on Akt1 it was greater than 30000 nM; on Akt3 it was 1100 nM; at Akt2 it was greater than 30000 nM; on p-Akt2 in WM115 cells, greater than 30000 nM.
